Laboratory results from patent US6875778B2, “Alkylene-tethered bis-nitroiminoimidazolidines, process for preparing the same, and insecticides containing the same” (Gifu University, priority 2002, dated 2005).

tested on: common cockroach; test: insecticidal activity against the common cockroach (abdominal injection, minimum lethal dose); format: in vivo; conditions: MLD = minimum lethal dose (moles/insect) at which two of three male adult common cockroaches became paralyzed or died; 1 to 10 μl of 1% by weight methanol solution injected into abdomen
Experimental: The insecticidal activity against the common cockroach was tested for the compounds of Examples 1 to 14 and the compound of Comparative Example 1. Methanol solutions containing 1% by weight of each compound were prepared. 1 to 10 μl of the methanol solution were injected into the abdomens of 3 male adult common cockroaches. The concentration at which two of the three adult insects became paralyzed or died, namely the minimum lethal dose (MLD: moles/insect) was then investigated.

First: O=[N+]([O-])N=C1N(CCCN2CCN(Cc3ccc(Cl)nc3)C2=N[N+](=O)[O-])CCN1Cc1ccc(Cl)nc1 [Exp. 1, 1,3-bis[(6-chloronicotinyl)-2-nitroiminoimidazolidin-3-yl]propane]
Second: O=[N+]([O-])N=C1N(CCCCN2CCN(Cc3ccc(Cl)nc3)C2=N[N+](=O)[O-])CCN1Cc1ccc(Cl)nc1 [Exp. 2, 1,4-bis[(6-chloronicotinyl)-2-nitroiminoimidazolidin-3-yl]butane]
The “log (1/MLD)” value of the first is higher: 8.31 for the first, 7.97 for the second.

`O=[N+]([O-])N=C1N(Cc2ccc(Cl)nc2)CCN1Cc1cccc(CN2CCN(Cc3ccc(Cl)nc3)C2=N[N+](=O)[O-])c1` [Exp. 12, 1,3-bis[(6-chloronicotinyl)-2-nitroiminoimidazolidin-3-yl]methylbenzene] and `O=[N+]([O-])N=C1N(Cc2ccc(CN3CCN(Cc4ccc(Cl)nc4)C3=N[N+](=O)[O-])cc2)CCN1Cc1ccc(Cl)nc1` [Exp. 13, 1,4-bis[(6-chloronicotinyl)-2-nitroiminoimidazolidin-3-yl]methylbenzene] are within 0.2 log units of each other in “log (1/MLD)” value: 7.71 for the first, 7.57 for the second.

`O=[N+]([O-])N=C1N(CCCCCCCCCN2CCN(Cc3ccc(Cl)nc3)C2=N[N+](=O)[O-])CCN1Cc1ccc(Cl)nc1` [Exp. 7, 1,9-bis[(6-chloronicotinyl)-2-nitroiminoimidazolidin-3-yl]nonane] and `O=[N+]([O-])N=C1N(CCCCCCCCCCN2CCN(Cc3ccc(Cl)nc3)C2=N[N+](=O)[O-])CCN1Cc1ccc(Cl)nc1` [Exp. 8, 1,10-bis[(6-chloronicotinyl)-2-nitroiminoimidazolidin-3-yl]decane] are within 0.2 log units of each other in “log (1/MLD)” value: 8.56 for the first, 8.43 for the second.

Compared with `O=[N+]([O-])N=C1N(CCCCCCCN2CCN(Cc3ccc(Cl)nc3)C2=N[N+](=O)[O-])CCN1Cc1ccc(Cl)nc1` [Exp. 5, 1,7-bis[(6-chloronicotinyl)-2-nitroiminoimidazolidin-3-yl]heptane], `O=[N+]([O-])N=C1N(CCCCCCCCN2CCN(Cc3ccc(Cl)nc3)C2=N[N+](=O)[O-])CCN1Cc1ccc(Cl)nc1` [Exp. 6, 1,8-bis[(6-chloronicotinyl)-2-nitroiminoimidazolidin-3-yl]octane] is lower in “log (1/MLD)” value: 8.55 for the first, 8.35 for the second.

Compared with `O=[N+]([O-])N=C1N(CCCCCCN2CCN(Cc3ccc(Cl)nc3)C2=N[N+](=O)[O-])CCN1Cc1ccc(Cl)nc1` [Exp. 4, 1,6-bis[(6-chloronicotinyl)-2-nitroiminoimidazolidin-3-yl]hexane], `O=[N+]([O-])N=C1N(CCN2CCN(Cc3ccc(Cl)nc3)C2=N[N+](=O)[O-])CCN1Cc1ccc(Cl)nc1` [Comp. Exp. 1, 1,2-bis[(6-chloronicotinyl)-2-nitroiminoimidazolidin-3-yl]ethane, reference compound] is lower in “log (1/MLD)” value: 8.65 for the first, 7.38 for the second.

For `O=[N+]([O-])N=C1N(CCCCCCN2CCN(Cc3cnc(Cl)s3)C2=N[N+](=O)[O-])CCN1Cc1cnc(Cl)s1` [Exp. 14, 1,6-bis[1-(2-chloro-5-thiazolylmethyl)-2-nitroiminoimidazolidin-3-yl]hexane], the “log (1/MLD)” value was 7.56.
